Patent US10696971B2, “MrgprX2/MrgprB2 expressing cell based assay to detect pseudo-allergic drug reactions and to identify blockers to prevent the adverse reactions” (The Johns Hopkins University, priority 2014, dated 2020)

What was measured:
[1] = tested on: peritoneal mast cells; test: Mouse peritoneal mast cell histamine release assay; format: cell-based; conditions: WT vs MrgprB2^MUT peritoneal mast cells
Procedure: Mast cells were purified as with the calcium imaging assay and allowed to recover for 2 hours in DMEM with 10% FBS and 25 ng/ml mouse stem cell factor in a 37° C. incubator with 5% CO2. Cells were then spun down, resuspended in CIB, counted, and plated at 300 cells/well in 75 μl CIB in 96-well plates coated with 20 μg/ml fibronectin (Sigma). They were allowed to adhere to the substrate for 45 minutes at 37° C. in atmospheric conditions (i.e. CO2 levels were not adjusted) before assay. […] After 5 minutes, 40 μl of supernatant was aspirated, diluted with 40 μl CIB and frozen at −80° C. until histamine levels were determined. Anti-IgE treatment was similar, except that cells were incubated for 30 minutes at 37° C. after anti-IgE was added before aspiration of supernatant. Histamine content was determined by using an HTRF histamine assay kit (Cisbio Assays) according to the manufacturer's instructions.

[2] = tested on: WT and MrgprB2^MUT mice; test: Systemic anaphylaxis assay (body core temperature); format: in vivo, mouse; conditions: ciprofloxacin i.v. 1.5 mg in 125 μl saline after propranolol, much smaller drop in MrgprB2^MUT
Procedure: To minimize stress, animals were transported to the procedure area the day before injections. Adult male and female mice up to 8 months of age (25 to 35 grams) were given an intraperitoneal injection of 80 μg propranolol in saline (2 mg/ml) immediately after removal from their cages, and then placed back in their cages for 30 minutes before intravenous injections. The intravenous injections were performed on one mouse at a time. For each injection, a mouse was placed in a transport box and brought to a room with no other mice, to minimize stress from vocalizations during injection. The mouse was then placed in a restrainer, and the injection was performed within 4 minutes of restraint because it was observed that longer restraint times affected body core temperature independent from the injection. […] The injection was determined to be successful only when all of the criteria were met: blood appeared in the syringe after needle insertion, all tail veins were visible after injection, and the mouse bled slightly from the injection site after needle withdrawal. The injection site was swabbed until blood stopped flowing, the mouse was placed in a separate cage from its housing cage, one mouse per cage, and returned to the room it was brought from. […] Body core temperature was measured with a rectal thermometer.

[3] = tested on: LAD2 human mast cells; test: LAD2 degranulation assay (β-hexosaminidase release), with MrgprX2 siRNA knockdown; format: cell-based; conditions: compound 48/80 0.1, mastoparan 5, icatibant 10, atracurium 25, ciprofloxacin 75 μg/ml
Procedure: LAD2 cells were sensitized for 20 hours with 0.5 μg/ml biotin-conjugated human IgE (Abbiotec). Cells were washed, resuspended in Hepes buffer (10 mM HEPES, 137 mM NaCl, 2.7 mM KCl, 0.38 mM Na2HPO4.7H2O, 5.6 mM glucose, 1.8 mM CaCl2.H2O, 1.3 mM MgSO4.7H2O, 0.4% BSA, pH 7.4) at 0.025×10^6 per well, and then stimulated with 0.1 μg/ml streptavidin (Life Technologies) or other agonists at the indicated concentrations for 30 minutes at 37° C./5% CO2. The β-hexosaminidase released into the supernatants and in cell lysates was quantified by hydrolysis of p-nitrophenyl N-acetyl-β-D-glucosamide (Sigma-Aldrich) in 0.1 M sodium citrate buffer (pH 4.5) for 90 minutes at 37° C. The percentage of β-hexosaminidase release was calculated as a percent of total content.
LAD2 cells were washed with medium, suspended at 0.5×10^6 cells per well, and transfected with 100 nm MrgprX2 siRNA and control siRNA in antibiotic-free StemPro medium using Lipofectamine 3000 (Life Technologies) according to the manufacturer's instruction at 37° C./5% CO2. At 48 hours, knockdown was confirmed by reverse-transcriptase PCR, and the cells were used for degranulation assays.

Which “histamine release from WT peritoneal mast cells (MrgprB2^MUT released substantially less)” value [1] does the source give for O=C(O)c1cn(C2CC2)c2cc(N3CCNCC3)c(F)cc2c1=O [ciprofloxacin] here?
Its value is “induced histamine release”.

What about the “change in body temperature” value [2] of the same compound?
Its value is “induced a rapid drop in body temperature”.

And the “β-hexosaminidase release in MrgprX2 siRNA vs control siRNA cells” value [3]?
Its value is “significantly reduced”.
